Assays:
KB1P tumors = assay: Drug treatment in vivo of mice bearing KB1P tumors; set-up: species or system mouse
Procedure: For tumor generation, tumor organoids were transplanted into the 4th mammary fat pad of FVB female mice. Rimadyl (0.067 mg/ml, Zoetis) was administered to mice in the drinking water from 24 h before surgery and for 48 h after surgery. Mice were also treated with temgesic (0.1 mg/kg, Indivior Europe Limited), 1 hr before and 12 h after surgery. Mice were anesthetized with isoflurane (2%, v/v) and their eyes were covered with duratears (Alcon). About 100,000 single cells derived from KB1P organoids or 200,000 single cells derived from MMTV-PyMT organoids were injected in 30 μl of BME (Amsbio, Cat. No. 3533-005-02). Mice were weighed and monitored three times a week after transplantation of tumor organoids. Tumor volume was measured with calipers three times weekly. The researcher performing the measurement of tumor volume was blinded to the treatment group. For survival experiments, endpoint was reached when tumor reached 2000 mm3. For specific experiments, reference is made to the schematic representations of treatment timelines depicted in the figures.
Once tumors were established and reached a size of ˜7×7 mm, mice were randomized into treatment groups with the following drug dosages and timeline: • AC+T treatment: every 14 days, cyclophosphamide (144 mg/kg, administered via intraperitoneal injection), doxorubicin (5 mg/kg, administered via intravenous injection) and docetaxel (25 mg/kg, resuspended in acetonitrile containing 0.1% acetic acid, administered via intravenous injection). Doxorubicin hydrochloride (Adriamycin) and cyclophosphamide (C), when combined in a treatment, are herein referred to as “AC”. Taxanes, as broadly described and disclosed herein, are referred to as “T”. In one example, said taxane is docetaxel. • AC treatment: every 14 days, cyclophosphamide (144 mg/kg, administered via intraperitoneal injection) and doxorubicin (5 mg/kg administered via intravenous injection). • Docetaxel treatment: every 14 days, docetaxel (25 mg/kg, re-suspended in acetonitrile containing 0.1% acetic acid and administered via intravenous injections). • Vehicle control for chemotherapy: every 14 days, the same volume of the vehicle as the corresponding chemotherapy was administered to mice. […]

MMTV-PyMT organoids = assay: Co-culture of pre-treated splenic T cells with MMTV-PyMT organoids (MTT, cleaved-caspase 3); assay type: cell-based, mouse; details: CD4 or CD8 T cells pre-treated with docetaxel
Procedure: Preparation of T cells: T cells isolated from mouse spleens or from mouse mammary tumors were cultured in Roswell Park Memorial Institute (RPMI) 1640 Medium (Thermo Fisher Scientific, Cat. No. 21875034) containing FBS (10%, Thermo Fisher Scientific, Cat. No. A4766801), Penicillin/streptomycin (10,000 U/ml; Thermo Fisher Scientific, Cat. No. 15140-122), IL2 (Thermo Fisher Scientific, Cat. No. PMC0025), β-mercaptoethanol (50 μmol/L) and Ultraglutamine (2 mmol/L, Lonza, Cat. No. BE17-605E/U1). T cells were kept in 20% O2, 5% CO2 and at 37 degrees Celsius
In order to assess the direct effects of docetaxel on T cell activation for T cells isolated from the spleen, T cells were cultured in the absence of CD3 and CD28 antibodies.
For T cells isolated from mouse mammary tumors, T cells were directly co-cultured with tumor organoids after FACS isolation. For T cells isolated from the spleen, T cells were treated for 72 h with PBS or with docetaxel (docetaxel 10 nmol/L), in the presence or absence of an LCKi (10 μmol/L, Merck Millipore, Cat. No. 213743-31-8). To evaluate the docetaxel-specificity of our observations, T cells were treated with paclitaxel 10 nmol/L or carboplatin 50 μmol/L for 72 h. […]
Following co-culture, medium was removed, and cultures were washed in PBS to remove T cells. […] Plates were read with a 565 nm wavelength. […]

## CC(=O)O[C@@]12CO[C@@H]1C[C@H](O)[C@@]1(C)C(=O)[C@H](O)C3=C(C)[C@@H](OC(=O)[C@H](O)[C@@H](NC(=O)OC(C)(C)C)c4ccccc4)C[C@@](O)([C@@H](OC(=O)c4ccccc4)[C@H]21)C3(C)C [docetaxel]
KB1P tumors; depletion of CD4 alone, CD8 alone or both
  anti-tumor effects of docetaxel (survival) upon T cell depletion: abrogated the anti-tumor effects
KB1P tumors; docetaxel 25 mg/kg intravenous every 14 days vs vehicle
  tumor outgrowth: delayed tumor outgrowth
KB1P tumors; docetaxel vs vehicle
  CD4 and CD8 T cell infiltration (immunohistochemistry): enhanced CD4 and CD8 T cell infiltration
KB1P tumors; tumors isolated 24 h after the second docetaxel administration
  accumulation of mitotic figures in tumors: did not observe an accumulation of mitotic figures
MMTV-PyMT organoids
  T cell-mediated killing in presence or absence of LCKi: TCR-independent increase of T cell-mediated killing

Reference: patent US20250387481A1, “PRE-TREATED T CELLS FOR USE AS A MEDICAMENT” (STICHTING HET NEDERLANDS KANKER INSTITUUT-ANTONI VAN …, priority 2022, published 2025)
